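Values below derive from 48-hour exposures of cells grown in 96-well plates, with endpoints linearly interpolated between the two concentrations bracketing the appropriate inhibition level. Abbreviation: GI50, concentration required for 50% inhibition of growth. TGI: total growth inhibition.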
Columns and labels:
Test in all cases: growth of human tumour cells (NCI), 48 h
[1] = system: HS 578T breast
[2] = system: RPMI-8226 leukemia
[3] = system: TK-10 renal
[4] = system: NCI-H226 lung
[5] = system: HT29 colon
[6] = system: UO-31 renal
[7] = system: OVCAR-3 ovarian
[8] = system: OVCAR-5 ovarian
[9] = system: KM12 colon
[10] = system: SK-MEL-5 melanoma
[11] = system: SF-539 CNS
[12] = system: HL-60(TB) leukemia
[13] = system: MALME-3M melanoma
[14] = system: ACHN renal
[15] = system: SK-MEL-2 melanoma
[16] = system: UACC-257 melanoma
[17] = system: HCT-116 colon
[18] = system: U251 CNS
[19] = system: A498 renal
[20] = system: HCT-15 colon
[21] = system: K-562 leukemia
[22] = system: 786-0 renal
[23] = system: MDA-MB-231 breast
[24] = system: HCC-2998 colon
[25] = system: SK-MEL-28 melanoma
[26] = system: LOX IMVI melanoma
[27] = system: MDA-MB-435
[28] = system: NCI-H522 lung
[29] = system: MOLT-4 leukemia
[30] = system: M14 melanoma
[31] = system: SF-268 CNS
[32] = system: BT-549 breast
[33] = system: HOP-92 NSCLC
[34] = system: SNB-19 CNS
[35] = system: NCI-H460 lung
[36] = system: NCI-H23 lung
[37] = system: CAKI-1 renal
[38] = system: SR leukemia
[39] = system: UACC-62 melanoma
[40] = system: CCRF-CEM leukemia
[41] = system: MCF7 breast
[42] = system: HOP-62 NSCLC
[43] = system: NCI/ADR-RES ovarian
[44] = system: SNB-75 CNS
[45] = system: SW-620 colon
[46] = system: SN12C renal
[47] = system: SF-295 CNS
[48] = system: IGROV1 ovarian
[49] = system: OVCAR-8 ovarian
[50] = system: A549 NSCLC
[51] = system: SK-OV-3 ovarian
[52] = system: T-47D breast
[53] = system: EKVX NSCLC
[54] = system: COLO 205 colon
[55] = system: OVCAR-4 ovarian
[56] = system: PC-3 prostate
[57] = system: DU-145 prostate
[58] = system: RXF 393 renal

CCOC(=O)[C@@H](C)C[C@H](Cc1ccccc1)NC(=O)c1csc([C@@H](C[C@H](C(C)C)N(C)C(=O)[C@@H](NC(=O)[C@H]2CCCCN2C)C(C)(C)CC)OC(C)=O)n1
GI50 [1]: < 0.00167 µM
TGI [1]: 2.17 µM
GI50 [2]: < 0.00167 µM
TGI [2]: 4.18 µM
GI50 [3]: 0.0418 µM
TGI [3]: > 16.7 µM
GI50 [4]: < 0.00167 µM
TGI [4]: 0.0336 µM
GI50 [5]: < 0.00167 µM
TGI [5]: > 6.79 µM
GI50 [6]: 0.0132 µM
TGI [6]: 14.1 µM
GI50 [7]: < 0.00167 µM
GI50 [8]: 0.0037 µM
TGI [8]: > 16.7 µM
GI50 [9]: < 0.00167 µM
TGI [9]: > 16.7 µM
GI50 [10]: < 0.00167 µM
TGI [10]: 0.0294 µM
GI50 [11]: 0.00226 µM
TGI [11]: 0.00791 µM
GI50 [12]: < 0.00167 µM
TGI [12]: 0.0034 µM
GI50 [13]: < 0.00167 µM
TGI [13]: 3.68 µM
GI50 [14]: 0.00225 µM
TGI [14]: > 14.1 µM
GI50 [15]: < 0.00167 µM
TGI [15]: > 16.7 µM
GI50 [16]: 0.0442 µM
TGI [16]: > 16.7 µM
GI50 [17]: < 0.00167 µM
TGI [17]: 3.02 µM
GI50 [18]: < 0.00167 µM
TGI [18]: > 7.64 µM
GI50 [19]: < 0.00167 µM
TGI [19]: 0.0114 µM
GI50 [20]: < 0.00167 µM
TGI [20]: > 5.93 µM
GI50 [21]: < 0.00167 µM
TGI [21]: > 16.7 µM
GI50 [22]: < 0.00167 µM
TGI [22]: 4.86 µM
GI50 [23]: 0.00283 µM
TGI [23]: 1.18 µM
GI50 [24]: < 0.00167 µM
TGI [24]: 2.77 µM
GI50 [25]: 1.2 µM
TGI [25]: > 16.7 µM
GI50 [26]: < 0.00167 µM
TGI [26]: 6.08 µM
GI50 [27]: < 0.00167 µM
TGI [27]: < 0.00167 µM
GI50 [28]: < 0.00167 µM
TGI [28]: 0.0397 µM
GI50 [29]: 0.00338 µM
TGI [29]: > 13.1 µM
GI50 [30]: < 0.00167 µM
TGI [30]: 1.8 µM
GI50 [31]: 0.00278 µM
TGI [31]: > 12.8 µM
GI50 [32]: < 0.00167 µM
TGI [32]: 0.107 µM
GI50 [33]: 0.0019 µM
TGI [33]: 5.69 µM
GI50 [34]: < 0.00167 µM
TGI [34]: > 16.7 µM
GI50 [35]: < 0.00167 µM
TGI [35]: > 12.9 µM
GI50 [36]: 0.00251 µM
TGI [36]: > 16.7 µM
GI50 [37]: 0.00176 µM
TGI [37]: > 9.4 µM
GI50 [38]: < 0.00167 µM
TGI [38]: 3.39 µM
GI50 [39]: < 0.00167 µM
TGI [39]: > 16.7 µM
GI50 [40]: 0.00246 µM
TGI [40]: > 8.65 µM
GI50 [41]: < 0.00167 µM
TGI [41]: > 16.7 µM
GI50 [42]: 0.00178 µM
TGI [42]: > 16.7 µM
GI50 [43]: 0.00891 µM
GI50 [44]: < 0.00167 µM
TGI [44]: 13.9 µM
GI50 [45]: < 0.00167 µM
TGI [45]: > 16.7 µM
GI50 [46]: 0.00247 µM
TGI [46]: 5.9 µM
GI50 [47]: < 0.00167 µM
TGI [47]: 1.87 µM
GI50 [48]: 0.0021 µM
TGI [48]: > 16.7 µM
GI50 [49]: 0.00231 µM
TGI [49]: > 16.7 µM
GI50 [50]: < 0.00167 µM
TGI [50]: > 16.7 µM
GI50 [51]: < 0.00167 µM
TGI [51]: > 16.7 µM
GI50 [52]: < 0.00167 µM
TGI [52]: > 16.7 µM
GI50 [53]: 0.00232 µM
TGI [53]: > 16.7 µM
GI50 [54]: < 0.00167 µM
TGI [54]: 0.003 µM
GI50 [55]: 0.0146 µM
TGI [55]: > 16.7 µM
GI50 [56]: < 0.00167 µM
TGI [56]: > 16.7 µM
GI50 [57]: < 0.00167 µM

COc1cc(CNCCCCCCN2C(=O)c3cccc4cccc(c34)C2=O)ccc1O
GI50 [1]: 10 µM
TGI [1]: 37.4 µM
GI50 [2]: 2.63 µM
TGI [2]: 7.19 µM
GI50 [3]: 10.1 µM
TGI [3]: 24.8 µM
GI50 [5]: 2.62 µM
TGI [5]: 10.1 µM
GI50 [6]: 2.65 µM
TGI [6]: 15.2 µM
GI50 [7]: 4.11 µM
TGI [7]: 16.6 µM
GI50 [8]: 14.1 µM
TGI [8]: 29 µM
GI50 [9]: 5.57 µM
TGI [9]: 18.9 µM
GI50 [10]: 2 µM
TGI [10]: 5.92 µM
GI50 [11]: 1.82 µM
TGI [11]: 3.83 µM
GI50 [12]: 3.33 µM
TGI [12]: 24.3 µM
GI50 [13]: 2.02 µM
TGI [13]: 4.63 µM
GI50 [14]: 5.38 µM
TGI [14]: 18.4 µM
GI50 [15]: 5.56 µM
TGI [15]: 18.2 µM
GI50 [16]: 2.15 µM
TGI [16]: 4.49 µM
GI50 [17]: 3.14 µM
TGI [17]: 11.2 µM
GI50 [18]: 4.51 µM
TGI [18]: 17.3 µM
GI50 [19]: 0.735 µM
TGI [19]: 21 µM
GI50 [20]: 10.4 µM
TGI [20]: 29.6 µM
GI50 [21]: 2.91 µM
TGI [21]: 11 µM
GI50 [22]: 5.59 µM
TGI [22]: 19.9 µM
GI50 [23]: 5.84 µM
TGI [23]: 19.6 µM
GI50 [24]: 11.2 µM
TGI [24]: 24.6 µM
GI50 [25]: 2.06 µM
TGI [25]: 4.31 µM
GI50 [26]: 1.86 µM
TGI [26]: 3.68 µM
GI50 [27]: 3.89 µM
TGI [27]: 15.9 µM
GI50 [28]: 2.32 µM
TGI [28]: 7.97 µM
GI50 [29]: 3.45 µM
TGI [29]: 16.2 µM
GI50 [30]: 1.97 µM
TGI [30]: 3.85 µM
GI50 [31]: 8.4 µM
TGI [31]: 24.8 µM
GI50 [32]: 14.5 µM
TGI [32]: 27.9 µM
GI50 [33]: 2.46 µM
TGI [33]: 17.5 µM
GI50 [34]: 13.6 µM
TGI [34]: 28.5 µM
GI50 [35]: 3.71 µM
TGI [35]: 15.9 µM
GI50 [36]: 10.8 µM
TGI [36]: 25.2 µM
GI50 [37]: 8.44 µM
TGI [37]: 26.9 µM
GI50 [58]: 2 µM
TGI [58]: 9.19 µM
GI50 [38]: 2.36 µM
TGI [38]: 7.8 µM
GI50 [39]: 13.1 µM
TGI [39]: 26.2 µM
GI50 [40]: 3.53 µM
TGI [40]: 29.3 µM
GI50 [41]: 1.74 µM
TGI [41]: 3.45 µM
GI50 [42]: 5.78 µM
TGI [42]: 19.1 µM
GI50 [43]: 10.4 µM
TGI [43]: 32.9 µM
GI50 [44]: 10.5 µM
TGI [44]: 22.4 µM
GI50 [45]: 4.1 µM
TGI [45]: 17.2 µM
GI50 [46]: 10.1 µM
TGI [46]: 22 µM
GI50 [47]: 9.13 µM
TGI [47]: 25.4 µM
GI50 [48]: 3.72 µM
TGI [48]: 16.2 µM
GI50 [49]: 4.73 µM
TGI [49]: 21.3 µM
GI50 [50]: 5.56 µM
TGI [50]: 19.4 µM
GI50 [51]: 12.3 µM
TGI [51]: 24.8 µM
GI50 [52]: 2.93 µM
TGI [52]: 14.3 µM
GI50 [53]: 13.1 µM
TGI [53]: 29.8 µM
GI50 [54]: 2.54 µM
TGI [54]: 6.62 µM
GI50 [55]: 6.14 µM
TGI [55]: 19.2 µM
GI50 [56]: 4.42 µM
TGI [56]: 18.7 µM
GI50 [57]: 6.08 µM
TGI [57]: 18.9 µM
